# Reference: ChEMBL document CHEMBL4602629, “Isolation of three new meroterpenoids and seven known compounds from Albatrellus yasudae and their Aβ-aggregation inhibitory activity” (Bioorg Med Chem Lett, 2020)
# Target: Amyloid-beta precursor protein (Homo sapiens, UniProt P05067)
# Test: Inhibition of human amyloid beta (1 to 40) aggregation after 24 hrs by ThT fluorescence assay
# Sequence of Amyloid-beta precursor protein (P05067 whole entry): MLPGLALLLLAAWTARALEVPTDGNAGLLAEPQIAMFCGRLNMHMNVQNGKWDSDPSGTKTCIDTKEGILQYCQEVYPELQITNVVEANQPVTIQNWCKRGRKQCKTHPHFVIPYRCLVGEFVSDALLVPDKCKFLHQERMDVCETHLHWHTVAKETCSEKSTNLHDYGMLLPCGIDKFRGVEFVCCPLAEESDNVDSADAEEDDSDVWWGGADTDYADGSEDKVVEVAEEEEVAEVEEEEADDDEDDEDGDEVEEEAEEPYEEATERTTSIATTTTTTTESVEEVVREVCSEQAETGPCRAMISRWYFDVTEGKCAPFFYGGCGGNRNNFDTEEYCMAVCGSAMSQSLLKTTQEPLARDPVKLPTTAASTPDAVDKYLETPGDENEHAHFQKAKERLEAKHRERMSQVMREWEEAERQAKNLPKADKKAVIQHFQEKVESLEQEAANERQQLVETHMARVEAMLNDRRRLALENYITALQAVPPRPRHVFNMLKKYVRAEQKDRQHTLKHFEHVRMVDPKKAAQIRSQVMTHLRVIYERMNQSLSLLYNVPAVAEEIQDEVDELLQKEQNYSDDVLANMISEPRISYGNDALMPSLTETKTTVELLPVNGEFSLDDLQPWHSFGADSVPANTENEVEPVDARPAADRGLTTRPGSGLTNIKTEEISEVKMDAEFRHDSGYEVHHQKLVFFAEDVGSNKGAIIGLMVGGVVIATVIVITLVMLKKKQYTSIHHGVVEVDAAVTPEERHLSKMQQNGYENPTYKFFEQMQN
row,IC50,SMILES
1,16.7 µM,CC(C)=CCC/C(C)=C/CC/C(C)=C/Cc1c(C)cc(O)c(O)c1O
2,19.9 µM,CC(C)=CCC/C(C)=C/CC/C(C)=C/Cc1c(C)cc(O)cc1O
3,151 µM,CC(C)=CC(=O)C/C(C)=C/CC/C(C)=C/Cc1c(O)cc(C)c(C(=O)O)c1O
4,29.3 µM,COc1c(O)c(O)cc(C)c1C/C=C(\C)CC/C=C(\C)CCC=C(C)C
5,62.7 µM,CCCCCCCCCCCCCCC[C@@H](O)C(=O)N[C@@H](CO[C@@H]1O[C@H](CO)[C@@H](O)[C@H](O)[C@H]1O)[C@H](O)/C=C/CC/C=C(\C)CCCCCCCCC [CEREBROSIDE]
6,149 µM,CC(C)=CCC/C(C)=C/CC/C(C)=C/Cc1c(O)cc(C)cc1O [GRIFOLIN]

# The remaining lines, values behind:
row,SMILES,IC50
1,COc1c(O)c(O)c(-c2c(C)c(C/C=C(\C)CC/C=C(\C)CCC=C(C)C)c(OC)c(O)c2O)c(C)c1C/C=C(\C)CC/C=C(\C)CCC=C(C)C,12.3 µM
2,COC(=O)c1c(C)cc(O)c(C/C=C(\C)CC/C=C(\C)CCC=C(C)C)c1O,221 µM
3,CC(C)=CCC/C(C)=C/CCC1(C)C=Cc2c(O)cc(C)cc2O1 (stereo unspecified),68 µM
4,CC(C)=CCC/C(C)=C/CC[C@@]1(C)C=Cc2c(cc(C)c(C(=O)O)c2O)O1 [DAURICHROMENIC ACID],24.7 µM
5,CC(C)=CCC/C(C)=C/CC/C(C)=C/Cc1c(O)cc(C)c(C(=O)O)c1O [GRIFOLIC ACID],20.3 µM
